Measured values published in patent US20060167057A1, “Compounds for the treatment of CNS and amyloid associated diseases” (priority 2004, published 2006).

Molecular target: T1, L1 transport system (large neutral amino acid carrier, L1-system carrier) (Rattus norvegicus, UniProt Q63016)
T1 construct: functionality of their endogenous transporters such as the L1-system carrier; endogenous in cells; host or cells: rat primary cerebrovascular (brain microcapillary) endothelial cells, RBEC
Assay: Competitive binding assay to the brain L1 transport system (L-[U-14C]phenylalanine on rat primary cerebrovascular endothelial cells)
Method: Compound samples in PBS (without Ca^+2, Mg^+2)-glucose 30 mM-HEPES 10 mM—DMSO 1% as prepared in Example 1 were thawed and left for at least 30 minutes at 20-23° C. before preparation of the following sub-dilutions for the competitive binding assay: • 200 μL of the stock solution were added to 800 μL PBS (without Ca^+2, Mg^+2)-Glucose-HEPES-1% DMSO (PBSD-1) [diluted 1:5 for a final 1:5 dilution] • 100 μL (1/5 dilution above) were added to 900 μL PBSD-1 [diluted 1:10 for a final 1:50 dilution] • 100 μL (1/50 dilution above) were added to 900 μL PBSD-1 [diluted 1:10 for a final 1:500 dilution]
These sub-dilutions were used immediately or stored overnight at 4° C. before the competitive binding assay. A volume of 45 μL of each of the compound dilutions (1:5, 1:50, 1:500) in PBSD-1 was added to the appropriate wells in the dilution plate.
Brains from sixty 24-day-old rats were dissected individually on a sterile lint moistened with ice cold Hanks' balanced salt solution (Gibco BRL, Grand Island, N.Y.) containing 10 mM HEPES (medium 1) supplemented with 0.1% BSA. Cerebellum, striatum, optic nerves, and brain stem (white matter) were removed. After a mid-sagittal section of the brain, the meninges and leptomeningeal debris were removed by rolling a sterile dry cotton swab on the cortices. (Ichikawa N, Naora K, Hirano H, Hashimoto M, Masumura S, and Iwamoto K (1996). Isolation and primary culture of rat cerebral microvascular endothelial cells for studying drug transport in vitro. J Pharmacol Toxicol Meth 36: 45-52.). Clean cortices were minced in pieces of ≈2 mm^3 in 15 mL of ice-cold medium 1-0.1% BSA. The preparation was divided into 4 sterile pre-weighed tubes and centrifuged at 330× g at 20-25° C. for 5 min. Tubes were weighed and pre-warmed (37° C.) and medium 1 with 0.5% BSA containing 0.3% collagenase and 10 μg/mL DNAse 1 (Roche, Laval, Quebec, Canada) were added to each tube (1 mL/g of tissue).
The brain-collagenase mixture was vigorously agitated in a water bath at 37° C. for 90 min. Fifteen min before the end of the digestion, the tissue was homogenized using a 10-mL pipette until a creamy mixture was obtained (≈20 aspirations). Cells were washed by adding medium 1 with 0.1% BSA to the homogenate (26 mL/tube) and centrifuged at 100× g at 20-25° C. for 7 min. This washing step was repeated 3 more times, once for 5 min and twice for 3 min. Each pellet was re-suspended in 25 mL of a 15% dextran solution prepared in medium 1 with 0.1% BSA and centrifuged at 3200× g at 4° C. for 25 min to isolate vessels from neural tissue and dextran layers. Vascular pellets were re-suspended in 5 mL Ca^++—Mg^++-free-medium 1 with 0.1% BSA (medium 2) at 20-25° C. and transferred in a 50-mL tube. Remaining vessels were collected by rinsing the tubes and pooling the rinsing suspension. (Rupnick M A, Carey A, and Williams S K (1988). Phenotypic diversity in cultured cerebral microvascular endothelial cells in vitro. Cell Develop Biol 24: 435-444.)
The vascular preparation was filtered and rinsed (20 mL of medium 2) through a sterile 355-μm mesh. The 355-μm filtrate was sequentially filtered twice (20 mL of medium 2) through sterile 112-μm meshes and rinsed (Stanimirovic D B, Wong J, Ball R, and Durkin J P (1995). Free radical-induced endothelial membrane dysfunction at the site of the blood-brain barrier: relationship between lipid peroxidation, Na,K-ATPase activity, and ^51Cr release. Neurochem Res 20:1417-1427.) and the latter filtrate was filtered and rinsed through a sterile 20-μm mesh. A final step of filtration and rinse was repeated through a double layer of 20-μm meshes. All 20-μm meshes, which retained the microcapillaries, were then transferred into a 50-mL tube containing 20 mL of a 0.1% collagenase/dispase (Roche) solution in medium 2 supplemented with 10 μg/mL DNAse 1 and 0.147 μg/mL tosyl-lysine-chloromethyl-ketone (Sigma Chemical Co., Oakville, Ontario, Canada) (medium 3).

T1 sequence (Q63016 whole entry): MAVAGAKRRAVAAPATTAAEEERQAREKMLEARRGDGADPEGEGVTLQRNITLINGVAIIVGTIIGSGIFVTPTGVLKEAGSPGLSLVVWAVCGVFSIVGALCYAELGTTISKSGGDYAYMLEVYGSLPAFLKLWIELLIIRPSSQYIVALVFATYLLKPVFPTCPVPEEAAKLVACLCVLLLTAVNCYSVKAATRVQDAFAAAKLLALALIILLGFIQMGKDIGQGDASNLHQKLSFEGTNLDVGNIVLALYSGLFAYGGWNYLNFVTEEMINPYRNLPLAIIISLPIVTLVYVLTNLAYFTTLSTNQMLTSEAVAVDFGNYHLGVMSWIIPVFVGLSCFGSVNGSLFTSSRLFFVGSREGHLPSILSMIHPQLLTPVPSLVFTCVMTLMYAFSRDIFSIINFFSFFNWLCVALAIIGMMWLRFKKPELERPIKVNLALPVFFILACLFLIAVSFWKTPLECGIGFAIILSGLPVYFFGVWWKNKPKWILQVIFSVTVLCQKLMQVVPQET
T1 sequence (Q794F9 whole entry partner): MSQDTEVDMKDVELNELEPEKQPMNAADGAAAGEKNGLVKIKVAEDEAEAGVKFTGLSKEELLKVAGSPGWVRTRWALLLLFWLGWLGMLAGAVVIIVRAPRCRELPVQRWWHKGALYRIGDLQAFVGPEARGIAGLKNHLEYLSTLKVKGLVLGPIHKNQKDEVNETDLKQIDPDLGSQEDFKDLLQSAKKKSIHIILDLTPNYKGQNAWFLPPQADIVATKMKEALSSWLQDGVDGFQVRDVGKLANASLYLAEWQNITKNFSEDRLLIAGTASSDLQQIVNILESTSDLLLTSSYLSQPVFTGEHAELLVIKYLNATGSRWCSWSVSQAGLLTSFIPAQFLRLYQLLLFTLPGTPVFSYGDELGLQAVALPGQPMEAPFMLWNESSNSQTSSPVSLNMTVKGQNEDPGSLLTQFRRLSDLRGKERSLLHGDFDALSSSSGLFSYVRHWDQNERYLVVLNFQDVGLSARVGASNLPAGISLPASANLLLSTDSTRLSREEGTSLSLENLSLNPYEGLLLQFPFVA

Compound	Comparison with the Binding of Phenylalanine (10^−4 M)	Comparison with the Binding of Phenylalanine (10^−5 M)	Comparison with the Binding of Phenylalanine (10^−6 M)
NC(Cc1cccc(CSc2nnc(-c3ccccc3)o2)c1)C(=O)O (stereo not drawn) [Compound 1]	2 (10 < X < 20 Rank 2)	3 (X > 20 Rank 3)	2 (10 < X < 20 Rank 2)
NC(Cc1cccc(CSc2nnnn2-c2ccc(O)cc2)c1)C(=O)O (stereo not drawn) [Compound 3]	3 (X > 20 Rank 3)	3 (X > 20 Rank 3)	3 (X > 20 Rank 3)
NC(=O)C(N)Cc1cccc(CSc2nnnn2-c2ccc(O)cc2)c1 (stereo not drawn) [Compound 4]	2 (10 < X < 20 Rank 2)	3 (X > 20 Rank 3)	3 (X > 20 Rank 3)
NC(Cc1cccc(CSc2ncc[nH]2)c1)C(=O)O (stereo not drawn) [Compound 5]	3 (X > 20 Rank 3)	3 (X > 20 Rank 3)	3 (X > 20 Rank 3)
NC(=O)C(N)Cc1cccc(CSc2ncc[nH]2)c1 (stereo not drawn) [Compound 6]	0 (X < 0 Rank 0)	0 (X < 0 Rank 0)	3 (X > 20 Rank 3)
N[C@@H](Cc1ccccc1)C(=O)NC(Cc1cccc(CSc2ncc[nH]2)c1)C(=O)O (stereo partly drawn) [Compound 7]	0 (X < 0 Rank 0)	0 (X < 0 Rank 0)	2 (10 < X < 20 Rank 2)
NC(Cc1cccc(CSc2nnnn2-c2ccccc2)c1)C(=O)O (stereo not drawn) [Compound 8]	3 (X > 20 Rank 3)	3 (X > 20 Rank 3)	3 (X > 20 Rank 3)
NC(=O)C(N)Cc1cccc(CSc2nnnn2-c2ccccc2)c1 (stereo not drawn) [Compound 9]	0 (X < 0 Rank 0)	1 (0 < X < 10 Rank 1)	0 (X < 0 Rank 0)
NC(Cc1cccc(CSc2nnc(-c3ccncc3)o2)c1)C(=O)O (stereo not drawn) [Compound 10]	0 (X < 0 Rank 0)	1 (0 < X < 10 Rank 1)	3 (X > 20 Rank 3)
NC(=O)C(N)Cc1cccc(CSc2nnc(-c3ccncc3)o2)c1 (stereo not drawn) [Compound 11]	0 (X < 0 Rank 0)	1 (0 < X < 10 Rank 1)	2 (10 < X < 20 Rank 2)
O=C(O)C(Cc1cccc(CSc2nnc(-c3ccncc3)o2)c1)NS(=O)(=O)c1ccc(F)cc1 (stereo not drawn) [Compound 12]	0 (X < 0 Rank 0)	0 (X < 0 Rank 0)	2 (10 < X < 20 Rank 2)
NC(Cc1cccc(CSc2nnc(-c3ccccc3)[nH]2)c1)C(=O)O (stereo not drawn) [Compound 13]	3 (X > 20 Rank 3)	3 (X > 20 Rank 3)	3 (X > 20 Rank 3)
NC(=O)C(N)Cc1cccc(CSc2nnc(-c3ccccc3)[nH]2)c1 (stereo not drawn) [Compound 14]	0 (X < 0 Rank 0)	3 (X > 20 Rank 3)	2 (10 < X < 20 Rank 2)
NC(Cc1cccc(CSc2nccc(O)n2)c1)C(=O)O (stereo not drawn) [Compound 16]	0 (X < 0 Rank 0)	1 (0 < X < 10 Rank 1)	0 (X < 0 Rank 0)
O=C(NC(Cc1cccc(CSc2nccc(O)n2)c1)C(=O)O)NC(c1ccccc1)c1ccccc1 (stereo not drawn) [Compound 17]	1 (0 < X < 10 Rank 1)	1 (0 < X < 10 Rank 1)	2 (10 < X < 20 Rank 2)
NC(Cc1cccc(CSc2nccc(C(F)(F)F)n2)n1)C(=O)O (stereo not drawn) [Compound 21]	0 (X < 0 Rank 0)	2 (10 < X < 20 Rank 2)	1 (0 < X < 10 Rank 1)
NC(=O)C(N)Cc1cccc(CSc2nccc(C(F)(F)F)n2)n1 (stereo not drawn) [Compound 22]	0 (X < 0 Rank 0)	1 (0 < X < 10 Rank 1)	0 (X < 0 Rank 0)
NC(Cc1cccc(CSc2cncc3c(C(F)(F)F)cccc23)n1)C(=O)O (stereo not drawn) [Compound 24]	0 (X < 0 Rank 0)	0 (X < 0 Rank 0)	3 (X > 20 Rank 3)
NC(=O)C(N)Cc1cccc(CSc2cncc3c(C(F)(F)F)cccc23)n1 (stereo not drawn) [Compound 25]	0 (X < 0 Rank 0)	1 (0 < X < 10 Rank 1)	0 (X < 0 Rank 0)
N[C@@H](Cc1ccccc1)C(=O)NC(Cc1cccc(CSc2cncc3c(C(F)(F)F)cccc23)n1)C(=O)O (stereo partly drawn) [Compound 26]	0 (X < 0 Rank 0)	0 (X < 0 Rank 0)	1 (0 < X < 10 Rank 1)
NC(Cc1cccc(CSc2nc3ccccc3[nH]2)n1)C(=O)O (stereo not drawn) [Compound 27]	3 (X > 20 Rank 3)	3 (X > 20 Rank 3)	3 (X > 20 Rank 3)
N[C@@H](Cc1ccccc1)C(=O)NC(Cc1cccc(CSc2nc3ccccc3[nH]2)n1)C(=O)O (stereo partly drawn) [Compound 29]	0 (X < 0 Rank 0)	1 (0 < X < 10 Rank 1)	3 (X > 20 Rank 3)
NC(=O)C(N)Cc1cccc(CSc2nc3ccccc3o2)n1 (stereo not drawn) [Compound 31]	0 (X < 0 Rank 0)	0 (X < 0 Rank 0)	2 (10 < X < 20 Rank 2)
N[C@@H](Cc1ccccc1)C(=O)NC(Cc1cccc(CSc2nc3ccccc3o2)n1)C(=O)O (stereo partly drawn) [Compound 32]	0 (X < 0 Rank 0)	1 (0 < X < 10 Rank 1)	3 (X > 20 Rank 3)
